Test results taken from patent US7833967B2, “Synthetic antimicrobial polypeptides” (priority 2003, dated 2010).

System: E. coli TOP10
Assay: Suicide expression system (SES) growth inhibition
Assay type: cell-based
[1] = Table 4, variants of SEQ ID NO:10, re-tested in the Bioscreen C
[2] = Table 3, variants of SEQ ID NO:5, re-tested in the Bioscreen C
[3] = Table 2, variants of SEQ ID NO:1, re-tested in the Bioscreen C
[4] = Table 5, mixed-motif library, re-tested in the Bioscreen C

| Substance | Growth inhibition (%) [1] | Growth inhibition (%) [4] | also measured |
| --- | --- | --- | --- |
| 101 (RRRPIRPPFRPPLRPPFRPPIRPPIRP; Synthetic antimicrobial peptide) [compound 101] | 81% |  |  |
| 38 (RRRPRPFPRPFPRPFPRPIPRPVPRPI; Synthetic antimicrobial peptide) [compound 38] |  |  | Growth inhibition (%) [2]: 64% |
| 37 (RRRPRPFPRPFPRPFPRPIPRPFPRPV; Synthetic antimicrobial peptide) [compound 37] |  |  | Growth inhibition (%) [2]: 68% |
| 161 (RRRPFRPPVRPPIRPPVRPPFRPPFRP; Synthetic antimicrobial peptide) [compound 161] | 78% |  |  |
| 20 (RRRPPRLPPRFPPRFPPRVPPRFPPRV; Synthetic antimicrobial peptide) [compound 20] |  |  | Growth inhibition (%) [3]: 86% |
| 305 (RRRPPRLPRPVPVRPPPRFPRPVPVRP; Synthetic antimicrobial peptide) [compound 305] |  | 90% |  |
| 281 (RRRPPRLPRPLPLRPPPRFPRPVPLRP; Synthetic antimicrobial peptide) [compound 281] |  | 91% |  |
| 65 (RRRPLRPPLRPPVRPPVRPPFRPPFRP; Synthetic antimicrobial peptide) [compound 65] | 89% |  |  |
| 187 (RRRPIRPPFRPPFRPPVRPPFRPPFRP; Synthetic antimicrobial peptide) [compound 187] | 85% |  |  |
| 132 (RRRPFRPPFRPPLRPPVRPPVRPPIRP; Synthetic antimicrobial peptide) [compound 132] | 72% |  |  |
| 267 (RRRPPRLPRPLPFRPPPRVPRPFPIRP; Synthetic antimicrobial peptide) [compound 267] |  | 94% |  |
| 71 (RRRPLRPPIRPPFRPPIRPPFRPPFRP; Synthetic antimicrobial peptide) [compound 71] | 82% |  |  |
| 166 (RRRPLRPPVRPPFRPPVRPPVRPPLRP; Synthetic antimicrobial peptide) [compound 166] | 55% |  |  |
| 143 (RRRPFRPPVRPPVRPPFRPPLRPPVRP; Synthetic antimicrobial peptide) [compound 143] | 43% |  |  |
| 215 (RRRPPRLPRPFPFRPPPRPRPFPFRP; Synthetic antimicrobial peptide) [compound 215] |  | 94% |  |
| 188 (RRRPFRPPFRPPIRPPVRPPVRPPFRP; Synthetic antimicrobial peptide) [compound 188] | 83% |  |  |
| 87 (RRRPFRPPFRPPIRPPFRPPVRPPVRP; Synthetic antimicrobial peptide) [compound 87] | 80% |  |  |
| 70 (RRRPLRPPLRPPFRPPIRPPLRPPFRP; Synthetic antimicrobial peptide) [compound 70] | 76% |  |  |
| 277 (RRRPPRLPRPLPIRPPPRVPRPFPIRP; Synthetic antimicrobial peptide) [compound 277] |  | 91% |  |
| 36 (RRRPRPFPRPFPRPFPRPFPRPIPRPI; Synthetic antimicrobial peptide) [compound 36] |  |  | Growth inhibition (%) [2]: 77% |

| Substance | Growth inhibition (%) [1] | Growth inhibition (%) [4] | also measured |
| --- | --- | --- | --- |
| 17 (RRRPPRIPPRLPPRIPPRFPPRFPPRL; Synthetic antimicrobial peptide) [compound 17] |  |  | Growth inhibition (%) [3]: 95% |
| 66 (RRRPFRPPFRPPFRPPIRPPLRPPIRP; Synthetic antimicrobial peptide) [compound 66] | 76% |  |  |
| 150 (RRRPIRPPIRPPFRPPIRPPFRPPVRP; Synthetic antimicrobial peptide) [compound 150] | 68% |  |  |
| 276 (RRRPPRLPRPLPIRPPPRLPRPVPVRP; Synthetic antimicrobial peptide) [compound 276] |  | 94% |  |
| 241 (RRRPPRLPRPFPVRPPPRIPRPIPFRP; Synthetic antimicrobial peptide) [compound 241] |  | 96% |  |
| 148 (RRRPIRPPFRPPFRPPFRPPFRPPLRP; Synthetic antimicrobial peptide) [compound 148] | 76% |  |  |
| 72 (RRRPIRPPFRPPFRPPFRPPFRPPFRP; Synthetic antimicrobial peptide) [compound 72] | 49% |  |  |
| 278 (RRRPPRLPRPLPIRPPPRVPRPLPFRP; Synthetic antimicrobial peptide) [compound 278] |  | 98% |  |
| 243 (RRRPPRLPRPFPVRPPPRLPRPVPFRP; Synthetic antimicrobial peptide) [compound 243] |  | 91% |  |
| 54 (RRRPRPFPRPVPRPVPRPFPRPIPRPL; Synthetic antimicrobial peptide) [compound 54] |  |  | Growth inhibition (%) [2]: 65% |
| 226 (RRRPPRLPRPFPIRPPPRVPRPIPVRP; Synthetic antimicrobial peptide) [compound 226] |  | 94% |  |
| 175 (RRRPFRPPVRPPFRPPLRPPFRPPFRP; Synthetic antimicrobial peptide) [compound 175] | 77% |  |  |
| 217 (RRRPPRLPRPFPFRPPPRVPRPFPLRP; Synthetic antimicrobial peptide) [compound 217] |  | 93% |  |
| 256 (RRRPPRLPRPIPLRPPPRVPRPIPIRP; Synthetic antimicrobial peptide) [compound 256] |  | 91% |  |
| 92 (RRRPVRPPIRPPFRPPFRPPFRPPFRP; Synthetic antimicrobial peptide) [compound 92] | 85% |  |  |
| 142 (RRRPLRPPIRPPVRPPFRPPVRPPFRP; Synthetic antimicrobial peptide) [compound 142] | 70% |  |  |
| 308 (RRRPPRLPRPVPVRPPPRVPRPVPVRP; Synthetic antimicrobial peptide) [compound 308] |  | 96% |  |
| 89 (RRRPFRPPFRPPFRPPVRPPVRPPLRP; Synthetic antimicrobial peptide) [compound 89] | 70% |  |  |
| 172 (RRRPFRPPIRPPFRPPIRPPVRPPFRP; Synthetic antimicrobial peptide) [compound 172] | 82% |  |  |
| 185 (RRRPLRPPIRPPIRPPFRPPFRPPFRP; Synthetic antimicrobial peptide) [compound 185] | 79% |  |  |

| Substance | Growth inhibition (%) [1] | Growth inhibition (%) [4] | also measured |
| --- | --- | --- | --- |
| 268 (RRRPPRLPRPLPFRPPPRVPRPVPLRP; Synthetic antimicrobial peptide) [compound 268] |  | 93% |  |
| 312 (RRRPPRVPRPIPIRPPPRVPRPVPFRP; Synthetic antimicrobial peptide) [compound 312] |  | 93% |  |
| 136 (RRRPFRPPFRPPIRPPFRPPIRPPLRP; Synthetic antimicrobial peptide) [compound 136] | 77% |  |  |
| 211 (RRRPPRLPRPFPFRPPPRFPRPIPFRP; Synthetic antimicrobial peptide) [compound 211] |  | 96% |  |
| 234 (RRRPPRLPRPFPLRPPPRVPRPLPIRP; Synthetic antimicrobial peptide) [compound 234] |  | 93% |  |
| 237 (RRRPPRLPRPFPLRPPPRVPRPVPVRP; Synthetic antimicrobial peptide) [compound 237] |  | 96% |  |
| 102 (RRRPIRPPFRPPIRPPFRPPLRPPFRP; Synthetic antimicrobial peptide) [compound 102] | 77% |  |  |
| 137 (RRRPLRPPFRPPFRPPIRPPFRPPVRP; Synthetic antimicrobial peptide) [compound 137] | 58% |  |  |
| 62 (RRRPRPIPRPIPRPFPRPFPRPFHAQSNCSRTKTHLRRGSE; Synthetic antimicrobial peptide) [compound 62] |  |  | Growth inhibition (%) [2]: 77% |
| 251 (RRRPPRLPRPIPFRPPPRIPRPLPFRP; Synthetic antimicrobial peptide) [compound 251] |  | 96% |  |
| 97 (RRRPLRPPFRPPFRPPLRPPFRPPIRP; Synthetic antimicrobial peptide) [compound 97] | 69% |  |  |
| 196 (RRRPFRPPLRPPIRPPIRPPFRPPFRP; Synthetic antimicrobial peptide) [compound 196] | 77% |  |  |
| 11 (RRRFRPPFRPPFRPPFRPPFRPPFRPP; Synthetic antimicrobial peptide) [compound 11] |  |  | Growth inhibition (%) (Table 1, 0.1% inducer (arabinose), pBAD/gIIIA in E. coli TOP10, Bioscreen C 37° C., end point OD450 vs control vector): 73% |
| 47 (RRRPRPFPRPFPRPVPRPIPRPFPRPF; Synthetic antimicrobial peptide) [compound 47] |  |  | Growth inhibition (%) [2]: 92% |
| 46 (RRRPRPFPRPFPRPVPRPFPRPFPRPI; Synthetic antimicrobial peptide) [compound 46] |  |  | Growth inhibition (%) [2]: 84% |
| 60 (RRRPRPIPRPFPRPVPRPVPRPFPRPF; Synthetic antimicrobial peptide) [compound 60] |  |  | Growth inhibition (%) [2]: 70% |
| 74 (RRRPFRPPVRPPFRPPFRPPIRPPIRP; Synthetic antimicrobial peptide) [compound 74] | 76% |  |  |
| 18 (RRRPPRLPPRFPPRFPPRIPPRFPPRI; Synthetic antimicrobial peptide) [compound 18] |  |  | Growth inhibition (%) [3]: 99% |
| 75 (RRRPFRPPIRPPVRPPFRPPFRPPFRP; Synthetic antimicrobial peptide) [compound 75] | 79% |  |  |
